Assay results as given in ChEMBL document CHEMBL2163212, “Antivirals targeting influenza A virus” (J Med Chem, 2012).

Test system: Influenza A virus
Assay: Antiviral activity against Influenza A virus assessed as inhibition of cap dependent viral transcription
Assay type: functional, organism-based

Question: `O=C(O)/C(O)=C/C(=O)C1(Cc2ccc(Cl)cc2)CCCN(Cc2ccccc2)C1` (configuration not stated) was tested. Which IC50 did it give?
Answer: Its IC50 is 1000 nM.

Question: `O=C(O)/C(O)=C/C(=O)C1(Cc2ccc(Cl)cc2)CCN(Cc2ccccc2)CC1` was tested. Which IC50 did it give?
Answer: Its IC50 is 1000 nM.
